# Results from patent publication US8212007B2, “Expression and purification of HIP/PAP and uses therefor” (priority 2007, dated 2012).
# Tests used:
# [1] = system: Listeria monocytogenes; assay: Bactericidal activity after N-terminal cleavage with trypsin; assay type: cell-based; settings: 5 μM protein, 2 hours at 37° C., L. monocytogenes
# Method: Eleven amino acids were truncated from the N-terminus HIP/PAP resulting in increase bactericidal activity.
# Purified recombinant HIP/PAP was cleaved by the addition of bovine trypsin (Sigma) in a 1:200 molar ratio (trypsin:HIP/PAP). After 2 hours incubation at 37° C., 5 μM trypsin-treated HIP/PAP or uncleaved recombinant HIP/PAP was added to Listeria monocytogenes that had been grown to mid-log phase in brain-heart infusion (BHI) broth and resuspended in 25 mM MES pH 6, 25 mM NaCl. Initial bacterial concentrations ranged from 10^5 to 10^6 CFU/ml. After incubation for 2 hours at 37° C., viable bacteria were quantitated by dilution plating on BHI agar plates.
# [2] = system: intestinal bacteria recovered from conventional mouse small intestine; assay: Flow cytometry binding to intestinal bacteria; settings: 30 μM conjugate, 40 minutes on ice, formaldehyde-fixed bacteria
substance,measurement,setting,value
"trypsin-treated HIP/PAP: recombinant HIP/PAP cleaved with bovine trypsin, 11 amino acids removed from the N-terminus",bactericidal activity with or without N-terminal truncation (11 amino acids),[1],increased bactericidal activity
"BSA-AlexaFluor555: AlexaFluor555-labeled BSA, control for flow cytometry binding to intestinal bacteria",binding of AlexaFluor555 conjugate to intestinal bacteria (flow cytometry),[2],no binding
